Where two headings read alike, the source gives them in different places.
Test: IV pharmacokinetics in male SD rats
Format: in vivo, rat
Conditions: for clearance: male, Sprague-Dawley, rat, plasma, iv
Method: Pharmacokinetic parameters of some examples were evaluated in male Sprague Dawley (SD) rats after intravenous (IV) and oral (PO) dosing. Male SD rats (5-6 weeks of age) were fasted for 12 hours before administration of the compound of interest. Animals were allowed access to food 2 h after dosing and water was given ad libitum. Except for the compound of Example 13, pharmacokinetic experiments comparing deuterium containing and non-deuterium containing compounds were performed at the same time using the same cohort of animals. The pharmacokinetic properties of the compound of Example 13 were evaluated separately and compared to previously generated data.
For IV dosing, a 0.5 mg/mL solution of the test compound was prepared in a vehicle consisting of 5% DMSO, 5% Cremophore, 90% normal saline. For a 1 mpk dose, 2 mL/kg of this dosing vehicle was administered to each rat by bolus injection into the tail vein. For lower doses, the dosing solution was diluted with the appropriate amount of vehicle. Example 3 was evaluated at 3 mpk by preparing a 1.5 mg/mL solution in the same vehicle and dosing 2 mL/kg. Blood samples from each animal was collected in di-sodium EDTA coated containers at 0.12, 0.25, 0.5, 1.0, 2.0, 4.0, 8.0 and 24.0 hours after dosing. Plasma was separated from the blood samples within 15 minutes following collection and stored at −20±5° C. before analysis.
A standard curve was generated from a stock solution of the test compound with known concentration in methanol. Working solutions having known concentrations ranging from 5-20,000 ng/mL were prepared from the stock solution by dilution with methanol:water (80:20 v/v). 5 uL of the working solutions were added to 45 uL of blank rat plasma to provide standard samples for analysis.
Plasma samples collected from rats after dosing were allowed to reach room temperature. A 50 uL aliquot of each plasma sample and the standard curve plasma samples were treated with 200 uL of acetonitrile containing an internal standard (100 ng/mL; warfarin/diclofenac) and mixed well. The samples were vortexed for 5 minutes followed by centrifugation for 5 minutes at 14000 rpm at 4° C. The supernatant (10 uL) was analyzed by LC-MS/MS (LC: Shimadzu SIL HTc, MS: MDS Sciex API-5500 & 4000 using 75%/25% acetonitrile/0.2% formic acid in Milli-Q water, flow rate: 1.0 mL/min, run time 3 minutes, Atlantis dC18(50×4.6 mm, 3 um; Waters®)) and the concentrations of the test compound in the plasma samples collected from rats at each time point were determined by comparison to the standard curve samples.
Pharmacokinetic parameters were calculated from the plasma concentrations at each time point using Phoenix WinNonlin (Version 7.0) by the non-compartmental analysis (NCA) method. Clearance values are reported as mL/min/kg. AUC values are reported as ng·h/mL.

[1] = 0.1 mg/kg, IV 0.1 mpk, ± one standard deviation, read-out: IV clearance 0.1 mpk
[2] = 1 mg/kg, IV 1 mpk, ± one standard deviation, read-out: IV clearance 1 mpk
[3] = 3 mg/kg, IV 3 mpk, ± one standard deviation, read-out: IV clearance 3 mpk
[4] = IV 0.1 mpk, ± one standard deviation

[2H]C([2H])(Oc1cc(C)n(-c2cc(-c3ccnc(C(C)(C)O)n3)ncc2C)c(=O)c1Cl)c1ccn(C)n1 (single isomer, unassigned) [Example 3-D2, 3-Chloro-2′-(2-(2-hydroxypropan-2-yl)pyrimidin-4-yl)-5′,6-dimethyl-4-((1-methyl-1H-pyrazol-3-yl)methoxy-d2)-2H-[1,4′-bipyridin]-2-one]
clearance [1]: 0.72 ± 0.18 L/h/kg
clearance [2]: 0.78 ± 0.12 L/h/kg
clearance [3]: 0.54 ± 0.06 L/h/kg

[2H]C([2H])(Oc1cc(C)n(-c2cc(-c3ccnc(C(C)(C)O)n3)ncc2C)c(=O)c1Cl)c1ccccc1 (single isomer, unassigned) [Example 5-D2, 3-Chloro-2′-(2-(2-hydroxypropan-2-yl)pyrimidin-4-yl)-5′,6-dimethyl-4-(phenylmethoxy-d2)-2H-[1,4′-bipyridin]-2-one]
clearance [1]: 1.08 ± 0.06 L/h/kg
clearance [2]: 0.78 ± 0.12 L/h/kg

[2H]C([2H])(Oc1cc(C)n(-c2cc(-c3ccnc(C(C)(C)O)n3)ncc2C)c(=O)c1Cl)c1cccc(C(F)(F)F)c1 (single isomer, unassigned) [Example 7-D2, 3-Chloro-2′-(2-(2-hydroxypropan-2-yl)pyrimidin-4-yl)-5′,6-dimethyl-4-((3-(trifluoromethyl)phenyl)methoxy-d2)-2H-[1,4′-bipyridin]-2-one]
clearance [1]: 0.294 ± 0.03 L/h/kg
clearance [2]: 0.36 ± 0.06 L/h/kg

[2H]C([2H])(Oc1cc(C)n(-c2cc(-c3ccnc(C(C)(C)O)n3)ncc2C)c(=O)c1Cl)c1cccc(OC)c1 (single isomer, unassigned) [Example 9-D2, 3-Chloro-2′-(2-(2-hydroxypropan-2-yl)pyrimidin-4-yl)-4-((3-methoxyphenyl)methoxy-d2)-5′,6-dimethyl-2H-[1,4′-bipyridin]-2-one]
clearance [1]: 1.02 ± 0.18 L/h/kg
clearance [2]: 1.08 ± 0.12 L/h/kg

[2H]C([2H])(Oc1cc(C)n(-c2cc(-c3ccnc(C(C)(C)O)n3)ncc2C)c(=O)c1Cl)c1ccc(F)cc1F (single isomer, unassigned) [Example 11-D2, 3-Chloro-4-((2,4-difluorophenyl)methoxy-d2)-2′-(2-(2-hydroxypropan-2-yl)pyrimidin-4-yl)-5′,6-dimethyl-2H-[1,4′-bipyridin]-2-one]
IV clearance 0.1 mpk [4]: 16 ± 5, mL/min/kg
clearance [2]: 1.5 ± 0.18 L/h/kg

[2H]C([2H])(Oc1cc(C)n(-c2cc(-c3ccnc(C(C)(C)O)n3)ncc2C)c(=O)c1Cl)c1ccc(F)cc1F (single isomer, unassigned) [Example 11-H2, 3-chloro-4-((2,4-difluorophenyl)methoxy-d2)-2′-(2-(2-hydroxypropan-2-yl)pyrimidin-4-yl)-5′,6-dimethyl-2H-[1,4′-bipyridin]-2-one]
dose dependence of clearance (IV 0.1 and 1 mpk): strong dose dependence
IV clearance 0.1 mpk [4]: 40 ± 4 mL/min/kg
IV clearance 1 mpk (IV 1 mpk, ± one standard deviation): 1.32 ± 0.12 L/h/kg

[2H]C([2H])([2H])C(O)(c1nccc(-c2cc(-n3c(C)cc(OCc4ncc(F)cc4F)c(Cl)c3=O)c(C)cn2)n1)C([2H])([2H])[2H] (single isomer, unassigned) [Example 13-D6, 3-Chloro-4-((3,5-difluoropyridin-2-yl)methoxy)-2′-(2-(2-hydroxypropan-2-yl-1,1,1,3,3,3-d6)pyrimidin-4-yl)-5′,6-dimethyl-2H-[1,4′-bipyridin]-2-one]
effect of deuterium substitution on clearance (IV, versus non-deuterated comparator Example 1-H2): did not result in a statistically significant reduction in clearance
clearance [2]: 1.5 ± 0.42 L/h/kg

Cc1cnc(-c2ccnc(C(C)(C)O)n2)cc1-n1c(C)cc(OCc2ccn(C)n2)c(Cl)c1=O [Example 3-H2, 3-chloro-2′-(2-(2-hydroxypropan-2-yl)pyrimidin-4-yl)-5′,6-dimethyl-4-((1-methyl-1H-pyrazol-3-yl)methoxy)-2H-[1,4′-bipyridin]-2-one]
clearance [1]: 0.78 ± 0.18 L/h/kg
clearance [2]: 0.54 ± 0.12 L/h/kg
clearance [3]: 0.48 ± 0.06 L/h/kg

Cc1cnc(-c2ccnc(C(C)(C)O)n2)cc1-n1c(C)cc(OCc2ccccc2)c(Cl)c1=O [Example 5-H2, 3-chloro-2′-(2-(2-hydroxypropan-2-yl)pyrimidin-4-yl)-5′,6-dimethyl-4-(phenylmethoxy)-2H-[1,4′-bipyridin]-2-one]
clearance [1]: 0.96 ± 0.12 L/h/kg
clearance [2]: 0.9 ± 0.12 L/h/kg

Cc1cnc(-c2ccnc(C(C)(C)O)n2)cc1-n1c(C)cc(OCc2cccc(C(F)(F)F)c2)c(Cl)c1=O [Example 7-H2, 3-chloro-2′-(2-(2-hydroxypropan-2-yl)pyrimidin-4-yl)-5′,6-dimethyl-4-((3-(trifluoromethyl)phenyl)methoxy)-2H-[1,4′-bipyridin]-2-one]
clearance [1]: 0.42 ± 0.24 L/h/kg
clearance [2]: 0.186 ± 0.018 L/h/kg

COc1cccc(COc2cc(C)n(-c3cc(-c4ccnc(C(C)(C)O)n4)ncc3C)c(=O)c2Cl)c1 [Example 9-H2, 3-chloro-2′-(2-(2-hydroxypropan-2-yl)pyrimidin-4-yl)-4-((3-methoxyphenyl)methoxy)-5′,6-dimethyl-2H-[1,4′-bipyridin]-2-one]
clearance [1]: 0.96 ± 0.18 L/h/kg
clearance [2]: 0.72 ± 0.12 L/h/kg

Reference: patent US12403141B2, “Deuterated MK2 pathway inhibitors and methods of using the same” (ACLARIS THERAPEUTICS, INC., priority 2019, dated 2025)
